This passage reports TGI results from PubChem BioAssay (NCI).

SMILES strings stand for the structures.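 Method: 48-hour compound exposure of cells in 96-well plates, five concentrations, linear interpolation of endpoints. The concentration for full growth arrest is given as TGI.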

Test systems include SW-620 colon; TK-10 renal; ACHN renal; OVCAR-8 ovarian; A549 NSCLC; SF-295 CNS; HS 578T breast; COLO 205 colon; MALME-3M melanoma; OVCAR-5 ovarian; OVCAR-3 ovarian; HCT-15 colon; U251 CNS; SF-539 CNS; T-47D breast; HOP-92 NSCLC.
Test in all cases: inhibition of tumour cell growth, NCI panel, 48 h

For `CCN1CC2=C(N=c3s/c(=C\c4ccc(Cl)cc4)c(=O)n3C2c2ccc(Cl)cc2)/C(=C/c2ccc(Cl)cc2)C1` (stereo unspecified), the TGI was > 100 µM in the assay on SW-620 colon; 62.5 µM with TK-10 renal; > 100 µM in the assay on ACHN renal; > 100 µM in the assay with OVCAR-8 ovarian; > 100 µM in the assay on A549 NSCLC; > 100 µM with SF-295 CNS. Also, the TGI in the assay with HS 578T breast, in the assay with COLO 205 colon, with MALME-3M melanoma, in the assay on OVCAR-5 ovarian, in the assay with OVCAR-3 ovarian and in the assay on HCT-15 colon was > 100 µM throughout. Also, the TGI with U251 CNS was > 100 µM.
With `C[C@]12CC[C@@H]3c4ccc(O)cc4CC[C@H]3[C@@H]1C/C(=C\c1ccc([N+](=O)[O-])cc1)C2=O`, the TGI in the assay with SW-620 colon, with TK-10 renal, in the assay on ACHN renal, with OVCAR-8 ovarian, in the assay on A549 NSCLC and in the assay on SF-295 CNS was > 100 µM in each case. Also, the TGI in the assay with SF-539 CNS was 75 µM; in the assay with T-47D breast, > 100 µM; with COLO 205 colon it was > 100 µM; with MALME-3M melanoma it was > 100 µM; in the assay on OVCAR-5 ovarian, > 100 µM; with OVCAR-3 ovarian, > 100 µM. Besides, the TGI with HCT-15 colon and with U251 CNS was > 100 µM in each case.
For the compound `NC(=O)NC(=O)c1cnccn1`, the TGI in the assay on SW-620 colon, in the assay on TK-10 renal, in the assay with ACHN renal, in the assay on A549 NSCLC, in the assay with SF-295 CNS and in the assay with HOP-92 NSCLC was > 100 µM each time. Besides, the TGI in the assay on SF-539 CNS, with MALME-3M melanoma, in the assay with OVCAR-5 ovarian, in the assay on OVCAR-3 ovarian, in the assay with HCT-15 colon and in the assay on U251 CNS was > 100 µM each time.
`c1ccc2c(c1)ccc1nc(-c3ccc4c(c3)OCO4)c3c(c12)CCCC3`: the TGI in the assay on SW-620 colon is > 100 µM; with ACHN renal it was > 100 µM; with OVCAR-8 ovarian, > 100 µM; in the assay with A549 NSCLC it was > 100 µM; in the assay with SF-295 CNS, > 100 µM; with HS 578T breast, 28.5 µM. In addition, the TGI with SF-539 CNS is 34.2 µM; in the assay on T-47D breast, 94.5 µM; in the assay with COLO 205 colon it was 41.7 µM; in the assay on MALME-3M melanoma it was 63.2 µM; in the assay on OVCAR-5 ovarian, > 100 µM; in the assay with OVCAR-3 ovarian, > 100 µM. Further, the TGI in the assay with HCT-15 colon and in the assay on U251 CNS was > 100 µM throughout.
As to `CC(=O)/C(C=Nc1c(C)n(C)n(-c2ccccc2)c1=O)=C(/C)O`, the TGI in the assay on SW-620 colon, in the assay with TK-10 renal, in the assay with ACHN renal, in the assay with OVCAR-8 ovarian, in the assay with A549 NSCLC and in the assay with SF-295 CNS was > 100 µM throughout. The TGI with HOP-92 NSCLC, in the assay with SF-539 CNS, in the assay with COLO 205 colon, in the assay on MALME-3M melanoma, in the assay on OVCAR-5 ovarian and with OVCAR-3 ovarian was > 100 µM throughout. In addition, the TGI in the assay with HCT-15 colon and in the assay with U251 CNS was > 100 µM each time.
Take `CSC1=N/C(=C\c2ccc(C)cc2)C(=O)N1CN1CCOCC1`: the TGI with SW-620 colon, in the assay on TK-10 renal, in the assay with ACHN renal, with OVCAR-8 ovarian, in the assay with A549 NSCLC and in the assay with SF-295 CNS was > 100 µM throughout. The TGI in the assay with HS 578T breast, in the assay on HOP-92 NSCLC, in the assay with COLO 205 colon, in the assay with MALME-3M melanoma, with OVCAR-5 ovarian and in the assay with OVCAR-3 ovarian was > 100 µM throughout. Also, the TGI with HCT-15 colon and in the assay with U251 CNS was > 100 µM each time.
As to `c1ccc(COc2ccc(CC3SCCCS3)cc2)cc1`, the TGI in the assay on SW-620 colon, in the assay with TK-10 renal, with ACHN renal, with OVCAR-8 ovarian, with A549 NSCLC and in the assay with SF-295 CNS was > 100 µM in each case. Also, the TGI was 74.3 µM with HOP-92 NSCLC; > 100 µM in the assay on T-47D breast; > 100 µM with COLO 205 colon; > 100 µM with MALME-3M melanoma; > 100 µM with OVCAR-3 ovarian; > 100 µM in the assay on HCT-15 colon.
With `NCc1ccc(-c2ccc(-c3ccc(-c4ccc(CN)s4)s3)s2)s1`, the TGI with SW-620 colon, with TK-10 renal, in the assay with ACHN renal, in the assay with OVCAR-8 ovarian, with A549 NSCLC and with SF-295 CNS was > 100 µM in each case. For the same compound, the TGI in the assay on HOP-92 NSCLC, in the assay on SF-539 CNS, in the assay on T-47D breast, in the assay on COLO 205 colon, in the assay on MALME-3M melanoma and in the assay on OVCAR-5 ovarian was > 100 µM throughout. The TGI in the assay with OVCAR-3 ovarian, with HCT-15 colon and in the assay on U251 CNS was > 100 µM each time.
With `CC(C)=CCC[C@]1(C)CC[C@]2(C)C3CCC(=C(C)C)[C@@H](CCCO)[C@]3(C)CC[C@@]2(C)C1` (stereo partly specified), the TGI is > 100 µM in the assay on SW-620 colon; 44.3 µM in the assay on TK-10 renal; > 100 µM in the assay on ACHN renal; > 100 µM in the assay on OVCAR-8 ovarian; > 100 µM with A549 NSCLC; > 100 µM in the assay on SF-295 CNS. In addition, the TGI in the assay with HS 578T breast was > 100 µM; in the assay on T-47D breast it was 29.6 µM; with COLO 205 colon, > 100 µM; with MALME-3M melanoma, > 100 µM; with OVCAR-5 ovarian, > 100 µM; with OVCAR-3 ovarian it was > 100 µM. The TGI in the assay with HCT-15 colon is > 100 µM; with U251 CNS, 61.4 µM.
For `Cc1ccc(-c2c(C#N)c(-c3ccc(Cl)cc3)c(C#N)c(=O)n2NS(=O)(=O)c2ccccc2)cc1`, the TGI in the assay with SW-620 colon, with TK-10 renal, in the assay with ACHN renal, in the assay on OVCAR-8 ovarian, in the assay with A549 NSCLC and in the assay with SF-295 CNS was > 100 µM each time. Besides, the TGI in the assay on HS 578T breast, in the assay with HOP-92 NSCLC, in the assay with SF-539 CNS, in the assay with COLO 205 colon, in the assay on MALME-3M melanoma and in the assay with OVCAR-5 ovarian was > 100 µM each time. Besides, the TGI with HCT-15 colon and in the assay on U251 CNS was > 100 µM throughout.
